Reference: US10533034B2, “Human iNKT cell activation using glycolipids” (ACADEMIA SINICA, priority 2014, dated 2020)

Assays:
B6 WT mice splenocytes = test: FACS analyses of WT mouse immune cells after glycolipid stimulation; type: in vivo; details: 1 μg/mouse; 72 hr
Protocol: B6 WT mice treated with the indicated glycolipid (1 μg/mouse) or vehicle (1% DMSO in PBS) were sacrificed at 72 hr post-injection and their splenocytes were subjected to FACS analysis. (8A) The total splenocytes, (8B) total CD11Chi cells, (8C) CD11Chi/CD80+ cells, (8D) CD11Chi/CD86+ cells, (8E) CD4^+ T cells and (8F) CD8^+ T cells.
B6 WT or Jα18 KO mice treated with specific glycolipid (1 μg/mouse) or vehicle (1% DMSO in PBS) were sacrificed at 72 hr post-injection and their spleens were harvested. After pressing spleens through 70 um strainer and lysis of erythrocytes, the nucleated cells were resuspended in PBS buffer containing azide (0.05%) and stained with antibodies recognizing the indicated cell surface antigens for 30 min at 4° C. After washing, the splenocytes were subjected to FACS analysis. The antibodies against CD3, CD4, CD8α, CD11c, CD80, and CD86 were obtained from BD Bioscience-Pharmingen.
Next, we analyzed the expansion/activation of immune cells in WT mice 3 days after glycolipid stimulation. The numbers of total T cells, CD4^+ T and CD8^+ T cells were higher in mice treated by GSLs with αGal head than those treated by GSLs with αGlc (FIGS. 2C, 8E and 8F). This was in line with the observation that more cytokines/chemokines were induced by GSLs with αGal than GSLs with αGlc in mice (FIGS. 2A, 2B and 7). […] As compared to 7DW8-5-Glc, C1-Glc not only expanded ˜1.3 fold more splenocytes and DCs (FIGS. 8A and 8B) but also activated ˜3.5 fold more CD80^+ DCs as well as ˜3 fold more CD86^+ DCs (FIGS. 8C and 8D). The increased expansion/activation of DCs may contribute to the stronger immunogenicity triggered by C1-Glc and C34-Glc as compared to 7DW8-5-Glc in vivo.

B6 wild type mice = test: Murine serum cytokine/chemokine secretion after i.v. glycolipid, wild type mice; type: in vivo, mouse; details: 1 μg/mouse i.v.; 2 and 18 hr
Protocol: B6 wild type mice were i.v. injected with 7DW8-5-Glc at 0.1 or 1 μg/mouse. Sera collected at 2 h and 18 h post-injection were analyzed for chemokine secretions such as IP-10 (6A), KC (6B), MCP-1 (6C), and MIP-1α (6D). These chemokines peaked at 2 hr post-injection.
B6 wild type and Jα18 knockout mice were i.v. injected with the indicated glycolipids (1 μg/mouse) or vehicle. Sera collected at 2 h and 18 h post-injection were analyzed for cytokines like IL-2 (7A), IL-6 (7B), GM-CSF (7C) and TNFα (7D) as well as chemokines such as IP-10 (7E), MIG (7F), KC (7G) and MCP-1 (7H). Only MIG peaked at 18 hr post-injection, while the others peaked at 2 hr post-injection.
All the glycolipids were dissolved in 100% DMSO at a concentration of 1-2 mg/ml. For in vivo experiments, all compounds were diluted to 10 μg/ml in saline just before injection of 100 μl diluted glycolipid or 100 μl 1% DMSO into mice. Pathogen-free C57BL/6 female mice aged 6-12 weeks were obtained from the National Laboratory Animal Center (Taipei, Taiwan). Jα18 knockout (KO) B6 mice were the gifts from Dr. Masaru Taniguchi (RIKEN Research Center for Allergy and Immunology, Yokohama, Japan). All the mice were maintained in pathogen free vivarium of Institute of Cellular and Organismic Biology, Academia Sinica (Taipei, Taiwan).
B6 WT or Jα18 KO mice were intravenously injected with vehicle or glycolipids at 0.1 or 1 μg/mouse. Serum was collected at 2 and 18 h after injection for measurement of cytokines/chemokines by Beadlyte® Mouse Cytokine kit (Millipore, N.Y.) and read by a Luminex® 200™ system (Luminex, Austin, Tex.).
Previously, 0.1 μg/mouse of 7DW8-5 was sufficient for immune stimulation,^19 but higher dosage (1 μg/mouse) was required for the glucose analog 7DW8-5-Glc to induce immune responses (FIG. 6). Thus, the biological activities of newly synthesized glycolipids were tested in B6 mice 2 and 18 hr after i.v. injection of glycolipids at 1 μg/mouse. […] As compared to GSLs with αGlc, GSLs with αGal induced higher levels of cytokines and chemokines, including IFN-γ, IL-2, IL-4, IL-6, GM-CSF, TNFα and IP-10.

Vα24+/Vβ11+ iNKT TCR = Vα24+/Vβ11+ iNKT TCR (Homo sapiens, UniProt A0A075B6N4+A0A0B4J240+P15813); test: Binding avidity of hCD1d-loaded glycolipids with Vα24+ iNKT cells (ternary interaction); details: in complex with hCD1d; Scatchard transformation; read-out: KD of ternary complex, hCD1d-glycolipid toward Vα24+/Vβ11+ iNKT TCR
Protocol: (3A) DN3A4-1.2 Vα14+ iNKT hybridoma cells and (3B) 7DW8-5-expanded Vα24^+ iNKT cells were incubated with various concentrations of the indicated dimeric mCD d-glycolipid and hCD1d-glycolipid complexes for 30 min at 4° C., respectively. The level of bound complexes at the indicated concentration was detected by anti-mIgG1 secondary antibody and analyzed by flow cytometry. The relationship between the binding percentage and the concentration of CD1ddi-glycolipids complex was plotted in mice (3A) and humans (3B). KD values in mice (3C) and humans (3D) were calculated from Scatchard transformation of the plot (3A) and 3B), respectively. Assay was performed in duplicates. Binding avidity of human CD1d-glycolipid complexes to Vα24^+ iNKT cells expanded by 7DW8-5 at 100 ng/ml was determined as described previously.^19 Next, we measured the ternary interaction between CD1d-glcolipid complex and the iNKT TCR in mice and humans. Different concentrations of mCD1d^di-glycolipid and hCD1d^di-glycolipid complexes were incubated with fixed amounts of DN3A4-1.2 murine iNKT hybridoma cells and human Vα24+/Vβ11^+ iNKT cells, respectively. The level of bound complexes at the indicated concentration was detected by anti-mIgG1 secondary antibody and analyzed by flow cytometry (FIGS. 3A and 3B). The KD of the ternary complex was calculated from the Scatchard transformation of the plots in FIGS. 3A and 3B using GraphPad Prism software. […] This was consistent with the observation that higher percentages of C1-pulsed splenocytes were stained by the mCD1d-7DW8-5 complex (36.2±5.0%) than mCD1d-7DW8-5-Glc complex (17.1±0.8%) (FIG. 11).

[1] = tested on: iNKT TCR of DN3A4-1.2 Vα14+ iNKT hybridoma cells; test: Binding avidity of mCD1d-loaded glycolipids to Vα14+ iNKT cells (ternary interaction); design: species or system mouse; details: complexed with mCD1d; Scatchard transformation; flow cytometry; read-out: KD of ternary complex, mCD1d-glycolipid toward iNKT TCR
Protocol: (3A) DN3A4-1.2 Vα14+ iNKT hybridoma cells and (3B) 7DW8-5-expanded Vα24^+ iNKT cells were incubated with various concentrations of the indicated dimeric mCD d-glycolipid and hCD1d-glycolipid complexes for 30 min at 4° C., respectively. The level of bound complexes at the indicated concentration was detected by anti-mIgG1 secondary antibody and analyzed by flow cytometry. The relationship between the binding percentage and the concentration of CD1ddi-glycolipids complex was plotted in mice (3A) and humans (3B). KD values in mice (3C) and humans (3D) were calculated from Scatchard transformation of the plot (3A) and 3B), respectively. Assay was performed in duplicates.
Briefly, murine CD1d:Ig dimer (BD Biosciences PharMingen, San Diego, Calif.) was loaded with glycolipids at a molar ratio of 1:10 or vehicle for overnight at 37° C. Murine 1.2 Vα14+ iNKT cells were incubated with various doses of dimer-glycolipid complex in buffer containing azide (0.05%) for 30 min at 4° C. These cells were then stained with anti-mouse IgG1-PE mAb (A85-1) for another 30 min at 4° C., followed by washing, fixation with 4% paraformaldehyde (PFA), and the bound mCD1d dimer complexes were detected by flow cytometry. The binding curve and linear fit of the Scatchard transformation were plotted by Graphpad Prism software.
Next, we measured the ternary interaction between CD1d-glcolipid complex and the iNKT TCR in mice and humans. Different concentrations of mCD1d^di-glycolipid and hCD1d^di-glycolipid complexes were incubated with fixed amounts of DN3A4-1.2 murine iNKT hybridoma cells and human Vα24+/Vβ11^+ iNKT cells, respectively. The level of bound complexes at the indicated concentration was detected by anti-mIgG1 secondary antibody and analyzed by flow cytometry (FIGS. 3A and 3B). The KD of the ternary complex was calculated from the Scatchard transformation of the plots in FIGS. 3A and 3B using GraphPad Prism software. […] This was consistent with the observation that higher percentages of C1-pulsed splenocytes were stained by the mCD1d-7DW8-5 complex (36.2±5.0%) than mCD1d-7DW8-5-Glc complex (17.1±0.8%) (FIG. 11).

[2] = tested on: human Vα24-restricted NKT cells; test: Cytokine production of human iNKT cells co-cultured with autologous DCs and glycolipids (Luminex); type: cell-based; details: 1 μg/mL; 72 hrs
Protocol: Human Vα24-restricted NKT cells were isolated from PBMC by magnetic beads, and iNKT cells were cultured with 50 μ/mL recombinant human IL-2. Two days later, iNKT cells were co-cultured with autologous monocyte-derived DCs and different glycolipids at 1 μg/mL in 96 wells. At 72 hrs, the supernatant were collected to determine the cytokines profiles by Luminex. (A) Secretion of IFN-γ and IL-4 was similar among all glycolipids. […] One-way ANOVA was used for statistic analysis. ***P<0.001 compared with C1. #, P<0.05 compared to C34.
To compare the capacities of C1, C34, K691, K705 and K706 in activating human iNKT cells, human Vα24-restricted NKT cells were isolated from PBMC by magnetic beads, and incubated with recombinant human IL-2 ([…]). Two days later, iNKT cells were co-cultured with autologous monocyte-derived DCs loaded with different glycolipids (1 μg/mL), including C1, C34, K691, K705 and K706, in 96 wells for three days. The supernatants were collected to determine cytokines/chemokines by Luminex assay. […] (Statistical evaluation was performed using one-way ANOVA. *P<0.05 compared with C1. #, P=0.002 compared with C34, using Student's T test).

| Kd (Vα24+/Vβ11+ iNKT TCR) [nM] | SMILES | CD80+ DCs activated, fold more than 7DW8-5-Glc (B6 WT mice splenocytes) [fold] | CD86+ DCs activated, fold more than 7DW8-5-Glc (B6 WT mice splenocytes) [fold] | induction of serum cytokines/chemokines (B6 wild type mice) | Kd [1] [nM] | DCs expanded, fold more than 7DW8-5-Glc (B6 WT mice splenocytes) [fold] | splenocytes expanded, fold more than 7DW8-5-Glc (B6 WT mice splenocytes) [fold] | Ratio of IFN-γ/IL-4 compared with C1 [2] |
| --- | --- | --- | --- | --- | --- | --- | --- | --- |
| 0.378 ± 0.019 | CC[C@@H](O)[C@@H](O)[C@H](CO[C@H]1OC(CO)[C@@H](O)C(O)C1O)NC(=O)Cc1ccc(Oc2ccc(F)cc2)cc1 (some centres unmarked) [Compound C34-Glc] | ~2 | ~2 | triggered both cytokines and chemokines | 7.96 ± 1.27 | – | – | – |
| 8.55 ± 0.617 | CCC(=O)N[C@@H](CO[C@H]1OC(CO)[C@@H](O)C(O)C1O)[C@H](O)[C@H](O)CC (some centres unmarked) [Compound C1-Glc] | ~3.5 | ~3 | triggered both cytokines and chemokines | 5.14 ± 0.11 | ~1.3 | ~1.3 | – |
| 0.498 ± 0.005 | CCCCCCCCCCCCCCC(O)C(O)C(COC1OC(CO)C(O)C(O)C1O)NC(=O)CCCCCCCCCCc1ccc(Oc2ccc(F)cc2)cc1 (centres unmarked) [Compound C34] | – | – | – | 0.735 ± 0.01 | – | – | significantly higher |
| 16.4 ± 4.2 | CCCCCCCCCCCCCCCCCCCCCCCCCC(=O)N[C@@H](CO[C@H]1O[C@H](CO)[C@H](O)[C@H](O)[C@H]1O)[C@H](O)[C@H](O)CCCCCCCCCCCCCC [Compound C1, α-Galactosyl ceramide, reference compound] | – | – | – | 1.24 ± 0.003 | – | – | – |
